These results are taken from US12577248B2, “Substituted [1,2,4]triazolo[1,5-a]pyrazines as spleen tyrosine kinase inhibitors” (NANJING RUIJIE PHARMA CO., LTD., priority 2020, dated 2026).

Like-named read-outs stand apart in the source and are kept apart here. Where only a bound is given, the exact number is not on record here.

In one test the target is SYK kinase (Homo sapiens, UniProt P43405). Briefly: SYK kinase assay (HTRF KinEASE-TK). The test is classed as biochemical. The conditions noted are these: read-out: Syk inhibition IC50. Here is the method:
A homogeneous time-resolved fluorescence (HTRF) assay was performed to assess the potential inhibitory effect of compounds on SYK kinase. The HTRF KinEASE-TK kit (Cisbio) was used. During the step, kinase will phosphorylate the substrate, and the resulting fluorescence signal is proportional to the phosphorylation level. The assay was performed in the following steps: First, the testing compounds were diluted 1:3 in succession in DMSO. The 1× kinase buffer contained 1 volume of 5× enzymatic buffer with 4 volumes of distilled water, 5 mM MgCl2, 1 mM MnCl2, and 1 mM DTT. The assays were assembled in 384 well plates (784075, Greiner) where 10 nl of compound solutions were added into each well, and the plates were centrifuged at 1000 g for 1 min. Then, 5 μl of 2×SYK in 1× kinase buffer were added to each well. The plates were centrifuged at 1000 g for 30 s and then incubated at room temperature for 10 min. The reaction was initiated by adding […] of premixed 2×TK-substrate-biotin and ATP mixture in 1× kinase buffer to the assay plates. The plates were centrifuged at 1000 g for 30 s and incubated at room temperature for 30 min. Phosphorylation was detected by adding 5 μl of 4×Sa-XL 665 in HTRF detection buffer into each well of the assay plates. The plates were centrifuged plates at 1000 g for 30 sec, and then incubated at room temperature for 1 h. Finally, the plates were read on an Envision 2104 plate reader (PerkinElmer) and the fluorescence signal was measured at 615 nm (Cryptate) and 665 nm (XL665).
A ratio (665/615 nm) was calculated for each well. The inhibition ratio was calculated as follow: […]
IC50 was calculated by fitting % Inhibition values and log of compound concentrations to nonlinear regression (dose response−variable slope) with GraphPad 6.0.

Another test has as its target T1, Ba/F3-TEL-SYK cells (Homo sapiens, UniProt P43405).
T1 construct: fused on or other part: N-terminal part of TEL (ETV6) with its oligomerising PNT/SAM domain, fused before the SYK part that carries the kinase domain; P41212 (Transcription factor ETV6)
Briefly: Ba/F3-TEL-SYK cell-based assay (CellTiter-Glo proliferation). Particulars: 72 hr, read-out: BaF3 Cell assay IC50. As for the experimental part: CellTiter-Glo® Luminescent Cell Viability Assay was used to determine the number of viable cells in culture based on quantitation of the ATP present, as an indicator of metabolically active cells. The assay was performed in the following steps: First, the testing compounds were dissolved in DMSO to make a stock solution. The stocks (10 mM) were then diluted to varying concentrations: […], 0.305 and 0.102 μM. An aliquot of 0.2 μl of diluted compounds were added to the 384 well assay plate. Second, added 40 μl of cell suspension with 800 Ba/F3-TEL-SYK cells into each well and incubated the plate at 37° C., 5% CO2 for 72 hr. Then, added 20 μl Cell Titer-Glo Reagent into each well of the cell culture plate. Mixed the contents for 2 min on an orbital shaker to lyse cells, and rest the plate at room temperature for 30 min. Finally, luminescence values were obtained using an Envision 2104 plate reader (PerkinElmer) and calculated the average data and Standard Deviation (SD) of DMSO and Reference (GS-9973, 1 μM) as high control and low control. To determine the IC50 value, fit the data using non-linear regression equation.
(In ATP-based viability assays light output follows the ATP content of the culture.)

For orientation: IC50 means the point on the concentration scale where inhibition reaches its midpoint.

Regarding `COc1ccc(Nc2nc(-c3ccc4cn[nH]c4c3)cn3ncnc23)cc1OC` [I3, N-(3,4-dimethoxyphenyl)-6-(1H-indazol-6-yl)-[1,2,4]triazolo[1,5-a]pyrazin-8-amine], at SYK kinase (class symbols), the 50% inhibitory concentration (IC50) was at most 50 nM. The GI50 at Ba/F3-TEL-SYK cells is at most 50 nM.
With `O=C(O)c1ccc(NC(=O)c2cccc(-c3cn4ncnc4c(Nc4ccc(N5CCOCC5)cc4)n3)c2)cc1` [I7, 4-(3-(8-((4-morpholinophenyl)amino)-[1,2,4]triazolo[1,5-a]pyrazin-6-yl)benzamido)benzoic acid], the IC50 on SYK kinase (class symbols) is at most 50 nM. In addition, the GI50 on Ba/F3-TEL-SYK cells is above 5000 nM.
The corresponding values for `COc1cc(Nc2nc(-c3ccc4cn[nH]c4c3)cn3ncnc23)ccc1N1CCN(C)CC1` [I12, 6-(1H-indazol-6-yl)-N-(3-methoxy-4-(4-methylpiperazin-1-yl)phenyl)-[1,2,4]triazolo[1,5-a]pyrazin-8-amine] are at most 50 nM and at most 50 nM.
With `CCN1CCN(c2ccc(Nc3nc(-c4ccc5cn[nH]c5c4)cn4ncnc34)cc2OC)CC1` [I16, N-(4-(4-ethylpiperazin-1-yl)-3-methoxyphenyl)-6-(1H-indazol-6-yl)-[1,2,4]triazolo[1,5-a]pyrazin-8-amine], the concentration for half-maximal inhibition (IC50) on SYK kinase (class symbols) was at most 50 nM. Also, at Ba/F3-TEL-SYK cells, the GI50 was at most 50 nM.
In the case of `COc1cc(Nc2nc(-c3ccc4cn[nH]c4c3)cn3ncnc23)ccc1N1CCN(C(C)C)CC1` [I17, 6-(1H-indazol-6-yl)-N-(4-(4-isopropylpiperazin-1-yl)-3-methoxyphenyl)-[1,2,4]triazolo[1,5-a]pyrazin-8-amine], at SYK kinase (class symbols), the concentration for half-maximal inhibition (IC50) is at most 50 nM. Moreover, at Ba/F3-TEL-SYK cells, the GI50 lay within 50 to 500 nM.
The like results for `COCCN1CCN(c2ccc(Nc3nc(-c4ccc5cn[nH]c5c4)cn4ncnc34)cc2OC)CC1` [I18, 6-(1H-indazol-6-yl)-N-(3-methoxy-4-(4-(2-methoxyethyl)piperazin-1-yl)phenyl)-[1,2,4]triazolo[1,5-a]pyrazin-8-amine] were, in that order, at most 50 nM and at most 50 nM.
The corresponding values for `FC(F)Oc1cc(Nc2nc(-c3ccc4cn[nH]c4c3)cn3ncnc23)ccc1N1CCOCC1` [I21, N-(3-(difluoromethoxy)-4-morpholinophenyl)-6-(1H-indazol-6-yl)-[1,2,4]triazolo[1,5-a]pyrazin-8-amine] are at most 50 nM and 50 to 500 nM.
The like results for `CC1(O)CCN(c2ccc(Nc3nc(-c4ccc5cn[nH]c5c4)cn4ncnc34)cc2)CC1` [I23, 1-(4-((6-(1H-indazol-6-yl)-[1,2,4]triazolo[1,5-a]pyrazin-8-yl)amino)phenyl)-4-methylpiperidin-4-ol] were, in that order, at most 50 nM and 50 to 500 nM.
Consider `COc1cc(Nc2nc(-c3ccc4cn[nH]c4c3)cn3ncnc23)ccc1N1CCS(=O)(=O)CC1` [I24, 4-(4-((6-(1H-indazol-6-yl)-[1,2,4]triazolo[1,5-a]pyrazin-8-yl)amino)-2-methoxyphenyl)thiomorpholine 1,1-dioxide], for which the concentration for half-maximal inhibition (IC50) on SYK kinase (class symbols) is at most 50 nM. Also, at Ba/F3-TEL-SYK cells, the GI50 is at most 50 nM.
For `O=S1(=O)CCN(c2ccc(Nc3nc(-c4ccc5cn[nH]c5c4)cn4ncnc34)cc2)CC1` [I25, 4-(4-((6-(1H-indazol-6-yl)-[1,2,4]triazolo[1,5-a]pyrazin-8-yl)amino)phenyl)thiomorpholine 1,1-dioxide], the IC50 on SYK kinase (class symbols) is at most 50 nM. Also, the GI50 at Ba/F3-TEL-SYK cells lay in the range of 50 to 500 nM.
The like results for `COc1cc(Nc2nc(-c3ccc4c(c3)OC(C)(C)C(=O)N4)cn3ncnc23)ccc1N1CCOCC1` [I26, 7-(8-((3-methoxy-4-morpholinophenyl)amino)-[1,2,4]triazolo[1,5-a]pyrazin-6-yl)-2,2-dimethyl-2H-benzo[b][1,4]oxazin-3(4H)-one] were, in that order, 50 to 500 nM and 50 to 500 nM.
Consider `COc1cc(Nc2nc(-c3ccc4c(c3)OCC(=O)N4)cn3ncnc23)ccc1N1CCOCC1` [I28, 7-(8-((3-methoxy-4-morpholinophenyl)amino)-[1,2,4]triazolo[1,5-a]pyrazin-6-yl)-2H-benzo[b][1,4]oxazin-3(4H)-one], for which the IC50 on SYK kinase (class symbols) was at most 50 nM. In addition, on Ba/F3-TEL-SYK cells, the GI50 is 50 to 500 nM.
For the compound `COc1cc(Nc2nc(-c3ccc4c(F)n[nH]c4c3)cn3cnnc23)ccc1N1CCOCC1` [I44, 6-(3-fluoro-1H-indazol-6-yl)-N-(3-methoxy-4-morpholinophenyl)-[1,2,4]triazolo[4,3-a]pyrazin-8-amine], the IC50 on SYK kinase (class symbols) is above 5000 nM.
Same read-out and setting: the result for `Fc1n[nH]c2cc(-c3cn4cnnc4c(Nc4ccc(N5CCOCC5)cc4)n3)ccc12` [I45, 6-(3-fluoro-1H-indazol-6-yl)-N-(4-morpholinophenyl)-[1,2,4]triazolo[4,3-a]pyrazin-8-amine] reads above 5000 nM; that for `COc1cc(Nc2nc(-c3ccc4c(C)n[nH]c4c3)cn3cnnc23)ccc1N1CCOCC1` [I46, N-(3-methoxy-4-morpholinophenyl)-6-(3-methyl-1H-indazol-6-yl)-[1,2,4]triazolo[4,3-a]pyrazin-8-amine], 500 to 5000 nM.
The same measure, in the same setting: the result for `COc1cc(Nc2nc(-c3ccc4c(C)c[nH]c4c3)cn3cnnc23)ccc1N1CCOCC1` [I47, N-(3-methoxy-4-morpholinophenyl)-6-(3-methyl-1H-indol-6-yl)-[1,2,4]triazolo[4,3-a]pyrazin-8-amine] reads 500 to 5000 nM.
Turning to `c1cc(N2CCOCC2)ccc1Nc1nc(-c2ccc3cn[nH]c3c2)cn2cnnc12` [I48, 6-(1H-indazol-6-yl)-N-(4-morpholinophenyl)-[1,2,4]triazolo[4,3-a]pyrazin-8-amine], the half-maximal inhibitory concentration (IC50) on SYK kinase (given as number) is above 10000 nM.
For the compound `c1nc2c(Nc3ccc(N4CCC5(COC5)C4)cc3)nc(-c3ccc4cn[nH]c4c3)cn2n1` [I63, N-(4-(2-oxa-6-azaspiro[3.4]octan-6-yl)phenyl)-6-(1H-indazol-6-yl)-[1,2,4]triazolo[1,5-a]pyrazin-8-amine], on SYK kinase (class symbols), the IC50 was above 5000 nM.
Regarding `c1nc2c(Nc3ccc(N4CCC5(COC5)C4)cc3)nc(-c3ccc4cc[nH]c4c3)cn2n1` [I64, N-(4-(2-oxa-6-azaspiro[3.4]octan-6-yl)phenyl)-6-(1H-indol-6-yl)-[1,2,4]triazolo[1,5-a]pyrazin-8-amine], the IC50 on SYK kinase (class symbols) is above 5000 nM.
In the case of `c1cc(N2CCOCC2)ccc1Nc1nc(-c2ccc3[nH]ncc3c2)cn2cnnc12` [I65, 6-(1H-indazol-5-yl)-N-(4-morpholinophenyl)-[1,2,4]triazolo[4,3-a]pyrazin-8-amine], the IC50 on SYK kinase (class symbols) was above 5000 nM.
Still for that read-out and setting: the result for `c1cc2cc(-c3cn4cnnc4c(Nc4ccc(N5CCOCC5)cc4)n3)ccc2[nH]1` [I66, 6-(1H-indol-5-yl)-N-(4-morpholinophenyl)-[1,2,4]triazolo[4,3-a]pyrazin-8-amine] reads above 5000 nM; that for `COc1cc(Nc2nc(-c3ccc4[nH]ncc4c3)cn3cnnc23)ccc1N1CCOCC1` [I67, 6-(1H-indazol-5-yl)-N-(3-methoxy-4-morpholinophenyl)-[1,2,4]triazolo[4,3-a]pyrazin-8-amine], 500 to 5000 nM.
Still for that read-out and setting: the result for `COc1cc(Nc2nc(-c3ccc4[nH]ccc4c3)cn3cnnc23)ccc1N1CCOCC1` [I68, 6-(1H-indol-5-yl)-N-(3-methoxy-4-morpholinophenyl)-[1,2,4]triazolo[4,3-a]pyrazin-8-amine] reads above 5000 nM; that for `CC(C)N1C[C@@H]2C[C@@H]1CN2c1ccc(Nc2nc(-c3ccc4cn[nH]c4c3)cn3ncnc23)cc1` [I71, 6-(1H-indazol-6-yl)-N-(4-((1S,4R)-5-isopropyl-2,5-diazabicyclo[2.2.1]heptan-2-yl)phenyl)-[1,2,4]triazolo[1,5-a]pyrazin-8-amine], 50 to 500 nM.
`c1nc2c(Nc3ccc(N4CCOCC4)c(OC4CC4)c3)nc(-c3ccc4cn[nH]c4c3)cn2n1` [I74, N-(3-cyclopropoxy-4-morpholinophenyl)-6-(1H-indazol-6-yl)-[1,2,4]triazolo[1,5-a]pyrazin-8-amine]: the half-maximal inhibitory concentration (IC50) at SYK kinase (class symbols) fell in the range of 50 to 500 nM.
For the compound `c1nc2c(Nc3ccc(N4CC5CC4CN5C4COC4)c(OC4CC4)c3)nc(-c3ccc4cc[nH]c4c3)cn2n1` (centres unmarked) [I80, N-(3-cyclopropoxy-4-(5-(oxetan-3-yl)-2,5-diazabicyclo[2.2.1]heptan-2-yl)phenyl)-6-(1H-indol-6-yl)-[1,2,4]triazolo[1,5-a]pyrazin-8-amine], on SYK kinase (class symbols), the concentration for half-maximal inhibition (IC50) was in the range of 500 to 5000 nM.
